# From patent publication US20240066051A1 (priority 2022, published 2024)
# Legend:
# [1] = test system: SARS-CoV-2 pseudotyped viral particles (Delta variant); type: binding
# [2] = test system: S-protein RBD mutants (VOC); type: binding, SARS-CoV-2
# [3] = biological target: S-protein RBD L452R+T478K mutant (Severe acute respiratory syndrome coronavirus 2, UniProt P0DTC2, L452R/T478K)
# [4] = test system: SARS-CoV-2 pseudotyped viral particles (Delta variant); type: cell-based
# [5] = biological target: SARS-CoV-2 S-protein RBD E484Q (Severe acute respiratory syndrome coronavirus 2, UniProt P0DTC2, E484Q); type: binding
# [6] = biological target: SARS-CoV-2 S-protein RBD L452R + T478K (Severe acute respiratory syndrome coronavirus 2, UniProt P0DTC2, L452R/T478K); type: binding
# [7] = biological target: SARS-CoV-2 S-protein RBD T478K (Severe acute respiratory syndrome coronavirus 2, UniProt P0DTC2, T478K); type: binding
# [8] = biological target: SARS-CoV-2 S-protein RBD N501Y (Severe acute respiratory syndrome coronavirus 2, UniProt P0DTC2, N501Y); type: binding
# [9] = biological target: SARS-CoV-2 S-protein RBD L452R (Severe acute respiratory syndrome coronavirus 2, UniProt P0DTC2, L452R); type: binding
Substance,inhibition of pseudotyped viral particle binding to heparin surface compared with heparin control [1],inhibition of S-protein RBD mutant-heparin interaction compared with heparin [2],inhibition of S-protein RBD mutant-heparin interaction compared with heparin [3],IC50 for viral inhibition [4],ka [5],kd [5],ka [6],kd [6],ka [7],kd [7],affinity to heparin compared with the WT RBD [8],ka [8],kd [8],affinity to heparin compared with the WT RBD [9],ka [9],kd [9]
mucopolysaccharide polysulfate [MPS],stronger inhibition,stronger inhibition,comparable inhibition to heparin,0.28 µg/mL,,,,,,,,,,,,
pentosan polysulfate [PPS],stronger inhibition,stronger inhibition,comparable inhibition to heparin,0.07 µg/mL,,,,,,,,,,,,
heparin,,,,,5.2 × 10^4 1/MS,0.011 1/S,2.3 × 10^4 1/MS,0.014 1/S,1.2 × 10^4 1/MS,6.0 × 10^−3 1/S,higher affinity,1.7 × 10^4 1/MS,4.2 × 10^−4 1/S,lower affinity,161 1/MS,1.3 × 10^−3 1/S
